Here are results for 12 compounds from patent US20070093476A1, “Novel compounds and their use in medicine,as antidiabetic and hypolipidemic agents, process for their preparation and pharmaceutical compositions containing them” (priority 2003, published 2007).

Structures can show the parent of a compound that is named as a salt. Where two headings read alike, the source gives them in different places.

The target in data set [1] is T1, hPPARγ1 (Homo sapiens, UniProt P37231).
T1 construct: expressed in transfected cells; host or cells: HEK-293
T1 sequence (P37231 238-503 limits assumed): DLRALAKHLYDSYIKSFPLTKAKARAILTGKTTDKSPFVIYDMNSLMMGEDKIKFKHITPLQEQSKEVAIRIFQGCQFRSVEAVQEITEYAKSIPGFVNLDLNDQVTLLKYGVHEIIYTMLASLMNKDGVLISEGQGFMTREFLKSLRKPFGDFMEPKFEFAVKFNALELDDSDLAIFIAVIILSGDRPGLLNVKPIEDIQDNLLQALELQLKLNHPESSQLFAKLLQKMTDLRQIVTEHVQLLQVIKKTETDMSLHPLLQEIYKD
Description: Determination of hPPARγ activity (GAL4-LBD luciferase reporter transactivation in HEK-293 cells). It counts as cell-based. The note with it: 1 μM compound. How it is done: b) Determination of hPPARγ Activity
Ligand binding domain of hPPARγ1 is fused to DNA binding domain of Yeast transcription factor GAL4 in eucaryotic expression vector. Using lipofectamine (Gibco BRL, USA) as transfecting reagent HEK-293 cells are transfected with this plasmid and a reporter plasmid harboring the luciferase gene driven by a GAL4 specific promoter. Compound can be added at 1 μM concentration after 48 hrs of transfection and incubated overnight Luciferase activity as a function of drug binding/activation capacity of PPARγ1 will be measured using Packard Luclite kit (Packard, USA) in Packard Top Count (Ivan Sadowski, Brendan Bell, Peter Broag and Melvyn Hollis. Gene. 1992. 118 : 137-141; Guide to Eukaryotic Transfections with Cationic Lipid Reagents. Life Technologies, GIBCO BRL, USA).
A general note: Reporter assays use an easily measured gene product as a stand-in for the process of interest.

The subject of data set [2] is Swiss albino mice. In words: Plasma triglyceride lowering activity in Swiss albino mice. The note with it: Mus musculus, 144 h, read-out: % of Reduction in Triglyceride. In kind it is in vivo. How it is done: b) Plasma Triglyceride and Total Cholesterol Lowering Activity in Swiss Albino Mice and Guinea Pigs
Male Swiss albino mice (SAM) and male Guinea pigs are obtained from NIN and housed in DRF animal house. All these animals are maintained under 12 hour light and dark cycle at 25±1° C. Animals are given standard laboratory chow (NIN, Hyderabad, India) and water, ad libitum. SAM of 20-25 g body weight range and Guinea pigs of 500-700 g body weight range are used (Oliver, P., Plancke, M. O., Marzin, D., Clavey, V., Sauzieres, J and Fruchart, J. C. Effects of fenofibrate, gemfibrozil and nicotinic acid on plasma lipoprotein levels in normal and hyperlipidemic mice. Atherosclerosis. 1988. 70 : 107-114).
The test compounds can be administered orally to Swiss albino mice at 0.3 to 30 mg/kg/day dose for 6 days. Control mice are treated with vehicle (0.25% Carboxymethylcellulose; dose 10 ml/kg). The test compounds are administered orally to Guinea pigs at 0.3 to 30 mg/kg/day dose for 6 days. Control animals are treated with vehicle (0.25% Carboxymethylcellulose; dose 5 ml/kg).
The blood samples can be collected in fed state 1 hour after drug administration on 0 and 6 day of treatment. The blood can be collected from the retro-orbital sinus through heparinised capillary in EDTA containing tubes. After centrifugation, plasma sample was separated for triglyceride and total cholesterol (Wieland, O. Methods of Enzymatic analysis. Bergermeyer, H. O., Ed., 1963. 211-214; Trinder, P. Ann. Clin. Biochem. 1969. 6 : 24-27). Measurement of plasma triglyceride, total cholesterol and HDL are done using commercial kits (Dr. Reddy's Diagnostic Division, Hyderabad, India).

Data set [3] concerns the target T2, hPPARα (Homo sapiens, UniProt Q07869).
T2 construct: expressed in transfected cells; host or cells: HEK-293
T2 sequence (Q07869 239-466 limits assumed): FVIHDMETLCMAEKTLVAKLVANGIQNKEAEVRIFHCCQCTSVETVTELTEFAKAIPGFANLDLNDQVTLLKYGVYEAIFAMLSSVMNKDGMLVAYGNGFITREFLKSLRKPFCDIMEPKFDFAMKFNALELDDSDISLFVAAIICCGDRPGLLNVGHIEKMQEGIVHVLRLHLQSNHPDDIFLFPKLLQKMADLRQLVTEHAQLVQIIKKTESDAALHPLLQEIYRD
In words: Determination of hPPARα activity (GAL4-LBD luciferase reporter transactivation in HEK-293 cells). In kind it is cell-based. The note with it: 50 μM compound. How it is done:
a) Determination of hPPARα Activity Ligand binding domain of hPPARα was fused to […] of Yeast transcription factor GAL4 in eucaryotic expression vector. Using superfect (Qiagen, Germany) as transfecting reagent HEK-293 cells are transfected with this plasmid and a reporter plasmid harboring the luciferase gene driven by a GAL4 specific promoter. Compound can be added at different concentrations after 42 hrs of transfection and incubated overnight. Luciferase activity as a function of compound binding/activation capacity of PPARα will be measured using Packard Luclite kit (Packard, USA) in Top Count (Ivan Sadowski, Brendan Bell, Peter Broag and Melvyn Hollis. Gene. 1992. 118 : 137-141; Superfect Transfection Reagent Handbook. February 1997. Qiagen, Germany).

The subject of data set [4] is C57BL/KsJ-db/db mice. Description: Efficacy in genetic model: plasma glucose and triglyceride lowering in db/db mice. Particulars: 3 mg/kg/d oral gavage, 6 days. It counts as in vivo. From the text: a) Efficacy in Genetic Models
Mutation in colonies of laboratory animals and different sensitivities to dietary regimens have made the development of animal models with non-insulin dependent diabetes and hyperlipidemia associated with obesity and insulin resistance possible. Genetic models such as db/db and ob/ob (Diabetes, (1982) 31(1) : 1-6) mice and zucker fa/fa rats have been developed by the various laboratories for understanding the pathophysiology of disease and testing the efficacy of new antidiabetic compounds (Diabetes, (1983) 32: 830-838; Annu. Rep. Sankyo Res. Lab. (1994). 46: 1-57). The homozygous animals, C57 BL/KsJ-db/db mice developed by Jackson Laboratory, US, are obese, hyperglycemic, hyperinsulinemic and insulin resistant (J. Clin. Invest., (1990) 85 : 962-967), whereas heterozygous are lean and normoglycemic. […]
The random blood sugar and triglyceride levels can be measured by collecting blood (100 μl) through orbital sinus, using heparinised capillary in tubes containing EDTA which was centrifuged to obtain plasma. The plasma glucose and triglyceride levels can be measured spectrometrically, by glucose oxidase and glycerol-3-PO4 oxidase/peroxidase enzyme (Dr. Reddy's Lab. Diagnostic Division Kits, Hyderabad, India) methods respectively.

Where [5] appears, read: Swiss albino mice, 3 mg/kg/d oral, 6 days.

Take `CCO[C@@H](Cc1ccc(NCCCn2ccc3cc(OS(C)(=O)=O)ccc32)cc1)C(=O)O` [Example 49, (S)-2-Ethoxy-3-[4-{3-(5-methanesulfonyloxyindol-1-yl)propylamino}phenyl]propanoic acid Arginine salt]: the “PPAR fold activation, PPAR γ at 1 μM concentration” value (shortened to “PPAR fold activation, PPAR γ”) in data set [1] was 1.5 fold. Moreover, the inhibition in vivo at 3 mg/kg/day in data set [2] (po) came out at 54%. Further, the “PPAR fold activation, PPAR α at 50 μM concentration” value (“PPAR fold activation, PPAR α” below) in data set [3] is listed as 3.6 fold.
The matching figures for `CCOC(Cc1ccc(NCC2CCc3cc(OS(C)(=O)=O)ccc3C2)cc1)C(=O)O` (stereo not drawn) [Example 53, 2-Ethoxy-3-[4-{(6-methanesulfonyloxy-1,2,3,4-tetrahydronapth-2-yl)methylamino}phenyl]propanoic acid Arginine salt]: 5.8 fold, 79% and 3.7 fold.
In the same order, the values of `CCOC(Cc1ccc(NCCCN2CCCc3ccccc32)cc1)C(=O)O` (stereo not drawn) [Example 55, 2-Ethoxy-3-[4-{3-1,2,3,4-tetrahydroquinolyn-1-yl)propylamino}phenyl]propanoic acid Arginine salt] are 11.9 fold, 60% and 3.8 fold.
The matching figures for `CO[C@@H](Cc1ccc(NCCCn2ccc3cc(OS(C)(=O)=O)ccc32)cc1)C(=O)O` [Example 50, (S)-2-Methoxy-3-[4-{3-(5-methanesulfonyloxyindol-1-yl)propylamino}phenyl]propanoic acid Arginine salt]: 1.4 fold, 31% and 3.5 fold.
Usually melting point stands for the temperature of the solid-liquid transition. `CCOC(Cc1ccc(NCc2ccc3cc(OS(C)(=O)=O)ccc3c2)cc1)C(=O)O` (stereo not drawn) [Example 24, 2-Ethoxy-3-[4-{6-methanesulfonyloxynapth-2-ylmethylamino}phenyl]propanoic acid] came in with a melting point of 168 to 170 °C. In addition, the “PPAR fold activation, PPAR γ” value in data set [1] is given as 4.5 fold. In addition, in data set [2] (setting [5]), the inhibition in vivo at 3 mg/kg/day amounted to 46%. Moreover, the “PPAR fold activation, PPAR α” value in data set [3] was 7.4 fold.
Take `CCOC(Cc1ccc(NCCCN2CCc3ccccc32)cc1)C(=O)O` (stereo not drawn) [Example 52, 2-Ethoxy-3-[4-{3-2,3-dihydroindol-1-yl)propylamino}phenyl]propanoic acid Arginine salt]: in data set [1], the “PPAR fold activation, PPAR γ” value is reported as 6 fold. Also, in data set [3], the “PPAR fold activation, PPAR α” value turned out to be 4.0 fold.
For the compound `CCOC(CCCc1ccc(NCc2ccc3cc(OS(C)(=O)=O)ccc3c2)cc1)C(=O)O` (stereo not drawn) [Example 46, 2-Ethoxy-5-[4-{6-methanesulfonyloxynapth-2-ylmethylamino}phenyl]pentatonic acid Arginine salt], the “PPAR fold activation, PPAR γ” value in data set [1] came to 2.1 fold. Besides, the inhibition in vivo at 10 mg/kg/day in data set [2] (po) worked out at 12%. Besides, the “PPAR fold activation, PPAR α” value in data set [3] is on record as 3.2 fold.
Turning to `CO[C@@H](Cc1ccc(NCCCn2ccc3ccccc32)cc1)C(=O)O` [Example 48, (S)-2-Methoxy-3-[4-{3-(indol-1-yl)propylamino}phenyl]propanoic acid Arginine salt], the “PPAR fold activation, PPAR γ” value in data set [1] is on record as 6.1 fold. Besides, the inhibition in vivo at 3 mg/kg/day in data set [2] (po) came out at 27%. Also, the “PPAR fold activation, PPAR α” value in data set [3] came to 4.6 fold.
The compound `CCOC(=O)C(Cc1ccc(NCc2ccc3cc(OS(C)(=O)=O)ccc3c2)cc1)OCC` (stereo not drawn) [Example 2, Ethyl 2-ethoxy-3-[4-{6-methanesulfonyloxynapth-2-ylmethylamino}phenyl]propanoate] had a melting point of 118 to 120 °C. Also, the “PPAR fold activation, PPAR γ” value in data set [1] is listed as 15.5 fold. For the same compound, in data set [2] (setting [5]), the inhibition in vivo at 3 mg/kg/day worked out at 50%. Besides, the “PPAR fold activation, PPAR α” value in data set [3] stood at 3.5 fold.
As to `CO[C@@H](Cc1ccc(NCc2ccc3cc(OS(C)(=O)=O)ccc3c2)cc1)C(=O)O` [Example 45, (S)-2-Methoxy-3-[4-{6-methanesulfonyloxynapth-2-ylmethylamino}phenyl]propanoic acid Arginine salt], the “PPAR fold activation, PPAR γ” value in data set [1] was 1.4 fold. The inhibition in vivo at 3 mg/kg/day in data set [2] (po) was found to be 60%. Moreover, the “PPAR fold activation, PPAR α” value in data set [3] turned out to be 5.2 fold. Also, in data set [4], the “% of Reduction in Triglyceride” value is given as 28% and the “% of reduction in Plasma glucose” value was determined as 32%.
Compound `CCOC(=O)[C@H](Cc1ccc(NCc2ccc3cc(OS(C)(=O)=O)ccc3c2)cc1)OC` [Example 1, (S)-Ethyl 2-methoxy-3-[4-(6-methanesulfonyloxynapth-2-ylmethylamino)phenyl]propanoate] came in with a melting point of 94 to 96 °C. Besides, in data set [1], the “PPAR fold activation, PPAR γ” value was determined as 9.2 fold. The “PPAR fold activation, PPAR α” value in data set [3] worked out at 2.7 fold.
`CCOC(Cc1ccc(NCCCn2ccc3ccccc32)cc1)C(=O)O` (stereo not drawn) [Example 47, 2-Ethoxy-3-[4-{3-(indol-1-yl)propylamino}phenyl]propanoic acid Arginine salt]: the “PPAR fold activation, PPAR γ” value in data set [1] is 6.7 fold. For the same compound, the inhibition in vivo at 3 mg/kg/day in data set [2] (po) came to 60%. Also, the “PPAR fold activation, PPAR α” value in data set [3] came out at 4.8 fold.
